# Data taken from patent US4956489A (Bioeurope, priority 1987, dated 1990).
# Read-outs that look alike come from different tables or passages of the source.
# How the values were obtained:
# solubility in water = assay type: physicochemical; conditions: in water at 25° C. and pH 6
# Excerpt: (§1) The amounts of residual solvent present in the final aqueous phase are removed by extraction with 2 liters of ethyl acetate. […] The aqueous phase is then concentrated by evaporation under vacuo, after which it is lyophilized. The structure of the product was verified by elemental analysis and proton NMR spectroscopy.
# (b) The lactyl-L-tyrosine ethyl ester is purified and deesterified according to the procedure described in Example 1 in relation to L-malyl-L-tyrosine ethyl ester, to obtain L-lactyl-L-tyrosine monosodium salt.
# [1] = solubility in ethyl acetate; assay type: physicochemical; conditions: extraction of the aqueous phase with ethyl acetate
# Excerpt: as §1
# [2] = read-out: solubility in water, equivalent molar
Structure (SMILES),solubility (solubility in water; read-out: solubility in water) [mg/mL],solubility (solubility in water; [2]) [mM],solubility in ethyl acetate [1]
C[C@H](O)C(=O)N[C@@H](Cc1ccc(O)cc1)C(=O)[O-].[Na+],≥ 330,≥ 1200,
O=C([O-])C[C@H](O)C(=O)N[C@@H](Cc1ccc(O)cc1)C(=O)[O-].[Na+].[Na+] [L-malyl-L-tyrosine disodium salt],820,2400,not soluble in ethyl acetate
